Data from ChEMBL document CHEMBL4385658, “Inhibition of β-amyloid-induced neurotoxicity by planar analogues of procyanidin B3” (Bioorg Med Chem Lett, 2019).
Activity calls are given as the source filed them. The rule behind the calls is not given here.

Assays:
[1] = target: Amyloid-beta precursor protein (Homo sapiens) (UniProt P05067); assay: Inhibition of Amyloid beta (1 to 42) (unknown origin) self aggregation at 20 uM incubated for 12 hrs by thioflavin T assay
SH-SY5Y = assay: Cytotoxicity in human SH-SY5Y cells assessed as reduction in cell viability at 0.1 to 1000 nM incubated for 48 hrs by WST8 assay; format: cell-based; details: 1 µM
[2] = target: Amyloid-beta precursor protein (Homo sapiens) (UniProt P05067); assay: Inhibition of Amyloid beta (1 to 42) (unknown origin)-induced cytotoxicity in human SH-SY5Y cells assessed as increase in cell viability incubated for 48 hrs by WST8 assay; format: cell-based
[3] = target: Amyloid-beta precursor protein (Homo sapiens) (UniProt P05067); assay: Inhibition of Amyloid beta (1 to 42) (unknown origin)-induced cytotoxicity in human SH-SY5Y cells assessed as increase in cell viability at 40 uM incubated for 48 hrs by WST8 assay; format: cell-based
[4] = target: Amyloid-beta precursor protein (Homo sapiens) (UniProt P05067); assay: Inhibition of Amyloid beta (1 to 42) (unknown origin)-induced cytotoxicity in human SH-SY5Y cells assessed as increase in cell viability at 20 uM incubated for 48 hrs by WST8 assay; format: cell-based
[5] = target: Amyloid-beta precursor protein (Homo sapiens) (UniProt P05067); assay: Inhibition of Amyloid beta (1 to 42) (unknown origin) self aggregation assessed as decrease in negative maximum of CD spectrum of amyloid beta (1-42) incubated for 4 hrs by CD spectroscopy
[6] = target: Amyloid-beta precursor protein (Homo sapiens) (UniProt P05067); assay: Inhibition of Amyloid beta (1 to 42) (unknown origin) fibril formation assessed as reduction in number of fibrils at 20 uM incubated for 48 hrs by transmission-type electron microscopy
[7] = target: Amyloid-beta precursor protein (Homo sapiens) (UniProt P05067); assay: Inhibition of Amyloid beta (1 to 42) (unknown origin) fibril formation assessed as reduction in thickness of fibrils at 20 uM incubated for 48 hrs by transmission-type electron microscopy

Sequence of Amyloid-beta precursor protein (Homo sapiens) (P05067 whole entry): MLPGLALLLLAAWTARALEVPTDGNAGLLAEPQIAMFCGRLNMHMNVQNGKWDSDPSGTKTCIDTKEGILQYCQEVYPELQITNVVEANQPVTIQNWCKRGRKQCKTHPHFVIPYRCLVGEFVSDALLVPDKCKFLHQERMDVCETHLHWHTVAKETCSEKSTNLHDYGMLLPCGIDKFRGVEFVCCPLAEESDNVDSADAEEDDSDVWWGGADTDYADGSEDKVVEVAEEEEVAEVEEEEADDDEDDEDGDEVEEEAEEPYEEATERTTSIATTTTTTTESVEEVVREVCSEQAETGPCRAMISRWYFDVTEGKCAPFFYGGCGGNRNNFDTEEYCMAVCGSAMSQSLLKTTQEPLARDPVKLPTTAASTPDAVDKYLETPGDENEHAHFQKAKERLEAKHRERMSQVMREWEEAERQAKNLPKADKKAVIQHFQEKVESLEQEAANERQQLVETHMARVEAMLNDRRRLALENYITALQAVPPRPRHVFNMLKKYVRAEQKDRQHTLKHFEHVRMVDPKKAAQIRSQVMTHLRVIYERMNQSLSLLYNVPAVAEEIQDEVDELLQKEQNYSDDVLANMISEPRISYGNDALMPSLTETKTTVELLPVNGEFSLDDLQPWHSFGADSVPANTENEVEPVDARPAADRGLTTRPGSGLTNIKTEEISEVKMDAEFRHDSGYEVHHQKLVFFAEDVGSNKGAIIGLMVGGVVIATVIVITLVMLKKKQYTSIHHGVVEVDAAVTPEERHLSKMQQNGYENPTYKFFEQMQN

Row | SMILES | inhibition [1] | inhibition [5] | inhibition [6] | inhibition [7] | Activity (SH-SY5Y) | inhibition [2] | inhibition [3] | inhibition [4]
1 | CC1(C)O[C@H]2Cc3c(O)cc(O)c([C@@H]4c5c(O)cc(O)cc5O[C@H](c5ccc(O)c(O)c5)[C@H]4O)c3O[C@@H]2c2cc(O)c(O)cc21 | Active |  |  |  | Non-Toxic | Dose-dependent effect | 100% | 
2 | Oc1cc(O)c2c(c1)O[C@H](c1ccc(O)c(O)c1)[C@@H](O)[C@@H]2c1c(O)cc(O)c2c1O[C@H](c1ccc(O)c(O)c1)[C@@H](O)C2 | Active |  |  |  | Non-Toxic | Dose-dependent effect | 100% | 
3 | CC1(C)O[C@H]2[C@H](c3c(O)cc(O)c4c3O[C@@H]3c5cc(O)c(O)cc5C(C)(C)O[C@H]3C4)c3c(O)cc(O)cc3O[C@@H]2c2cc(O)c(O)cc21 | Active | Active | Active | Active | Non-Toxic | Dose-dependent effect |  | 100%

More lines, main results first:

Row | inhibition [1] | inhibition [5] | inhibition [6] | inhibition [7] | SMILES | Activity (SH-SY5Y) | inhibition [2] | inhibition [3] | inhibition [4]
4 | Active |  |  |  | CC1(C)O[C@H]2Cc3c(O)cc(O)cc3O[C@@H]2c2cc(O)c(O)cc21 |  |  |  | 
5 | Active |  |  |  | Oc1cc(O)c2c(c1)O[C@H](c1ccc(O)c(O)c1)[C@@H](O)C2 |  |  |  | 
